# Legend:
# Assay type in all cases: functional
# CCRF-CEM = assay: Growth inhibition of human CCRF-CEM cells at 10^-5 M incubated for 48 hrs by sulforhodamine B assay; settings: read-out: GI
# K562 = assay: Growth inhibition of human K562 cells at 10^-5 M incubated for 48 hrs by sulforhodamine B assay; settings: K562, 48 h, read-out: GI
# A549 = assay: Growth inhibition of human A549/ATCC cells at 10^-5 M incubated for 48 hrs by sulforhodamine B assay; settings: A549, 48 h, read-out: GI
# EKVX = assay: Growth inhibition of human EKVX cells at 10^-5 M incubated for 48 hrs by sulforhodamine B assay; settings: read-out: GI
# HOP-92 = assay: Growth inhibition of human HOP92 cells at 10^-5 M incubated for 48 hrs by sulforhodamine B assay; settings: HOP-92, 48 h, read-out: GI
# NCI-H23 = assay: Growth inhibition of human NCI-H23 cells at 10^-5 M incubated for 48 hrs by sulforhodamine B assay; settings: NCI-H23, 48 h, read-out: GI
# NCI-H322M = assay: Growth inhibition of human NCI-H322M cells at 10^-5 M incubated for 48 hrs by sulforhodamine B assay; settings: read-out: GI
# NCI-H460 = assay: Growth inhibition of human NCI-H460 cells at 10^-5 M incubated for 48 hrs by sulforhodamine B assay; settings: NCI-H460, 48 h, read-out: GI
# NCI-H522 = assay: Growth inhibition of human NCI-H522 cells at 10^-5 M incubated for 48 hrs by sulforhodamine B assay; settings: NCI-H522, 48 h, read-out: GI
# COLO 205 = assay: Growth inhibition of human COLO205 cells at 10^-5 M incubated for 48 hrs by sulforhodamine B assay; settings: COLO 205, 48 h, read-out: GI
# HCT-116 = assay: Growth inhibition of human HCT116 cells at 10^-5 M incubated for 48 hrs by sulforhodamine B assay; settings: HCT-116, 48 h, read-out: GI
# HCT-15 = assay: Growth inhibition of human HCT15 cells at 10^-5 M incubated for 48 hrs by sulforhodamine B assay; settings: HCT-15, 48 h, read-out: GI
# KM12 = assay: Growth inhibition of human KM12 cells at 10^-5 M incubated for 48 hrs by sulforhodamine B assay; settings: KM12, 48 h, read-out: GI
# SW-620 = assay: Growth inhibition of human SW620 cells at 10^-5 M incubated for 48 hrs by sulforhodamine B assay; settings: SW-620, 48 h, read-out: GI
# SF-268 = assay: Growth inhibition of human SF268 cells at 10^-5 M incubated for 48 hrs by sulforhodamine B assay; settings: SF-268, 48 h, read-out: GI
# SF-295 = assay: Growth inhibition of human SF295 cells at 10^-5 M incubated for 48 hrs by sulforhodamine B assay; settings: SF-295, 48 h, read-out: GI
# SF-539 = assay: Growth inhibition of human SF539 cells at 10^-5 M incubated for 48 hrs by sulforhodamine B assay; settings: SF-539, 48 h, read-out: GI
# SNB-19 = assay: Growth inhibition of human SNB19 cells at 10^-5 M incubated for 48 hrs by sulforhodamine B assay; settings: SNB-19, 48 h, read-out: GI
# SNB-75 = assay: Growth inhibition of human SNB75 cells at 10^-5 M incubated for 48 hrs by sulforhodamine B assay; settings: SNB-75, 48 h, read-out: GI
# U-251 = assay: Growth inhibition of human U251 cells at 10^-5 M incubated for 48 hrs by sulforhodamine B assay; settings: U-251, 48 h, read-out: GI
# LOX IMVI = assay: Growth inhibition of human LOXIMVI cells at 10^-5 M incubated for 48 hrs by sulforhodamine B assay; settings: read-out: GI
# Malme-3M = assay: Growth inhibition of human MALME-3M cells at 10^-5 M incubated for 48 hrs by sulforhodamine B assay; settings: read-out: GI
# M14 = assay: Growth inhibition of human M14 cells at 10^-5 M incubated for 48 hrs by sulforhodamine B assay; settings: M14, 48 h, read-out: GI
# MDA-MB-435 = assay: Growth inhibition of human MDA-MB-435 cells at 10^-5 M incubated for 48 hrs by sulforhodamine B assay; settings: MDA-MB-435, 48 h, read-out: GI
# SK-MEL-2 = assay: Growth inhibition of human SK-MEL-2 cells at 10^-5 M incubated for 48 hrs by sulforhodamine B assay; settings: SK-MEL-2, 48 h, read-out: GI
# SK-MEL-5 = assay: Growth inhibition of human SK-MEL-5 cells at 10^-5 M incubated for 48 hrs by sulforhodamine B assay; settings: SK-MEL-5, 48 h, read-out: GI
# IGROV-1 = assay: Growth inhibition of human IGROV1 cells at 10^-5 M incubated for 48 hrs by sulforhodamine B assay; settings: IGROV-1, 48 h, read-out: GI
# OVCAR-3 = assay: Growth inhibition of human OVCAR3 cells at 10^-5 M incubated for 48 hrs by sulforhodamine B assay; settings: OVCAR-3, 48 h, read-out: GI
# OVCAR-4 = assay: Growth inhibition of human OVCAR4 cells at 10^-5 M incubated for 48 hrs by sulforhodamine B assay; settings: OVCAR-4, 48 h, read-out: GI
# OVCAR-8 = assay: Growth inhibition of human OVCAR8 cells at 10^-5 M incubated for 48 hrs by sulforhodamine B assay; settings: OVCAR-8, 48 h, read-out: GI
# NCI/ADR-RES = assay: Growth inhibition of human NCI/ADR-RES cells at 10^-5 M incubated for 48 hrs by sulforhodamine B assay; settings: read-out: GI
# SK-OV-3 = assay: Growth inhibition of human SKOV3 cells at 10^-5 M incubated for 48 hrs by sulforhodamine B assay; settings: SK-OV-3, 48 h, read-out: GI
# A498 = assay: Growth inhibition of human A498 cells at 10^-5 M incubated for 48 hrs by sulforhodamine B assay; settings: A498, 48 h, read-out: GI
# ACHN = assay: Growth inhibition of human ACHN cells at 10^-5 M incubated for 48 hrs by sulforhodamine B assay; settings: read-out: GI
# SN12C = assay: Growth inhibition of human SN12C cells at 10^-5 M incubated for 48 hrs by sulforhodamine B assay; settings: read-out: GI
# TK-10 = assay: Growth inhibition of human TK10 cells at 10^-5 M incubated for 48 hrs by sulforhodamine B assay; settings: TK-10, 48 h, read-out: GI
# PC-3 = assay: Growth inhibition of human PC3 cells at 10^-5 M incubated for 48 hrs by sulforhodamine B assay; settings: PC-3, 48 h, read-out: GI
# Hs-578T = assay: Growth inhibition of human Hs 578T cells at 10^-5 M incubated for 48 hrs by sulforhodamine B assay; settings: read-out: GI
# T47D = assay: Growth inhibition of human T47D cells at 10^-5 M incubated for 48 hrs by sulforhodamine B assay; settings: read-out: GI
SMILES,inhibition of growth at 10 µM (CCRF-CEM),inhibition of growth at 10 µM (K562),inhibition of growth at 10 µM (A549),inhibition of growth at 10 µM (EKVX),inhibition of growth at 10 µM (HOP-92),inhibition of growth at 10 µM (NCI-H23),inhibition of growth at 10 µM (NCI-H322M),inhibition of growth at 10 µM (NCI-H460),inhibition of growth at 10 µM (NCI-H522),inhibition of growth at 10 µM (COLO 205),inhibition of growth at 10 µM (HCT-116),inhibition of growth at 10 µM (HCT-15),inhibition of growth at 10 µM (KM12),inhibition of growth at 10 µM (SW-620),inhibition of growth at 10 µM (SF-268),inhibition of growth at 10 µM (SF-295),inhibition of growth at 10 µM (SF-539),inhibition of growth at 10 µM (SNB-19),inhibition of growth at 10 µM (SNB-75),inhibition of growth at 10 µM (U-251),also measured
O=C1/C(=C\c2ccc3ccccc3c2)Sc2ccc(Cl)cc21,-2.13%,2.65%,-7.74%,12.7%,27.3%,10.4%,10.3%,0.3%,11.7%,-10.7%,6.88%,-4.32%,-1.53%,3.24%,3.36%,-8.09%,-8.09%,-8.84%,-0.33%,-1.36%,inhibition of growth at 10 µM (LOX IMVI): 1.77%; inhibition of growth at 10 µM (Malme-3M): 8.78%; inhibition of growth at 10 µM (M14): 3.18%; inhibition of growth at 10 µM (MDA-MB-435): -2.15%; inhibition of growth at 10 µM (SK-MEL-2): -0.66%; inhibition of growth at 10 µM (SK-MEL-5): 5.71%; inhibition of growth at 10 µM (IGROV-1): 15.7%; inhibition of growth at 10 µM (OVCAR-3): -1.8%; inhibition of growth at 10 µM (OVCAR-4): 12.3%; inhibition of growth at 10 µM (OVCAR-8): -4.13%; inhibition of growth at 10 µM (NCI/ADR-RES): 2.51%; inhibition of growth at 10 µM (SK-OV-3): -3.03%; inhibition of growth at 10 µM (A498): 0.99%; inhibition of growth at 10 µM (ACHN): 8.79%; inhibition of growth at 10 µM (SN12C): 6.38%; inhibition of growth at 10 µM (TK-10): -5.61%; inhibition of growth at 10 µM (PC-3): 11.6%; inhibition of growth at 10 µM (Hs-578T): -2.83%; inhibition of growth at 10 µM (T47D): 29.5%
O=C1Nc2c(sc3ccc(Cl)cc23)C(c2ccccc2O)N1 (stereo not drawn),-4.19%,14.7%,-1.35%,21.9%,21%,13.5%,7.77%,6.65%,16%,-9.33%,4.28%,2%,-2.4%,-1.05%,7.91%,3.22%,3.22%,2.91%,27.4%,4.41%,inhibition of growth at 10 µM (LOX IMVI): -0.62%; inhibition of growth at 10 µM (Malme-3M): 15.8%; inhibition of growth at 10 µM (M14): 2.49%; inhibition of growth at 10 µM (MDA-MB-435): -3.03%; inhibition of growth at 10 µM (SK-MEL-2): 2.38%; inhibition of growth at 10 µM (SK-MEL-5): 4.49%; inhibition of growth at 10 µM (IGROV-1): 19.7%; inhibition of growth at 10 µM (OVCAR-3): 4.91%; inhibition of growth at 10 µM (OVCAR-4): 9.71%; inhibition of growth at 10 µM (OVCAR-8): 3.5%; inhibition of growth at 10 µM (NCI/ADR-RES): 1.65%; inhibition of growth at 10 µM (SK-OV-3): 4.45%; inhibition of growth at 10 µM (A498): 17.4%; inhibition of growth at 10 µM (ACHN): 9.18%; inhibition of growth at 10 µM (SN12C): 7.73%; inhibition of growth at 10 µM (TK-10): -18.6%; inhibition of growth at 10 µM (PC-3): 15.2%; inhibition of growth at 10 µM (Hs-578T): 3.74%; inhibition of growth at 10 µM (T47D): 18.1%

# Source: ChEMBL document CHEMBL4414672, “Synthesis of certain benzothieno[3,2-d]pyrimidine derivatives as a selective SIRT2 inhibitors” (Eur J Med Chem, 2020)
